Results taken from patent US20090232735A1, “USE OF FRUCTOSE-BASED THERAPIES FOR THE TREATMENT OF CANCER” (CEDARS-SINAI MEDICAL CENTER, priority 2005, published 2009).

Assays:
Type in all cases: cell-based, human
[1] = tested on: AP-1 activation in a primary culture of a pancreatic tumor; experiment: AP-1 probe binding assay, primary pancreatic tumor culture; settings: 5.5 mM sugar
Method: FIG. 24 depicts luciferase activity of PANC-1 cells and primary culture of surgically resected pancreatic tumor cells in accordance with an embodiment of the present invention. PANC-1 pancreatic cancer cells and a primary culture of a surgically resected pancreatic tumor were incubated in 2 mM glucose, 5.5 mM glucose or 5.5 mM fructose for 48 h, after which nuclear extracts were incubated with a biotinylated AP-1 probe, and detected by an antibody-linked colorimetric method. *, p<0.01
In separate experiments PANC-1 cells, and primary cultures of surgically resected pancreatic tumors were incubated in 2 mM glucose, or 5.5 mM glucose or 5.5 mM fructose for 48 h, after which nuclear extracts were incubated with a biotinylated AP-1 probe in binding buffer. AP-1/AP1 probe complexes were next conjugated to a streptavidin-coated assay plate and detected using an AP-1 specific antibody, followed by binding of a horseradish-peroxidase conjugated secondary antibody, and detection by a colorimetric reagent.

[2] = tested on: MAPK pathway (pMEK, pRsk, pCREB) in MCF-7, and MDA-MB231 breast cancer cells; experiment: Western blot of MAPK pathway in breast cancer cells
Method: FIG. 11 depicts increased breast cancer phosphorylated-MEK, phosphorylated Rsk, and phosphorylated CREB in accordance with an embodiment of the present invention. MCF-7 breast cancer cells were incubated in 2 mM glucose, 5 mM glucose or 5 mM fructose for 24 hours, after which Western blot analysis on total protein lysates was employed to examine components of the MAP kinase pathway. […] Total MEK, Rsk, and CREB levels, and β-actin served as loading controls.
Although several signal transduction pathways are likely involved in the fructose-mediated enhanced breast cancer growth and while not wishing to be bound by any particular theory, the inventors believe that the MAP-kinase pathway is involved. The inventors have used Western blot analysis to examine the MAPK pathway in breast cancer cells incubated in 2 mM glucose, 5.5 mM glucose, and 5.5 mM fructose for 48 hours. […] Activation of MEK, and subsequently ERK results in phosphorylation of p90^Rsk, which leads to transcriptional activation of CREB and AP1, which bind to cAMP or AP1 response elements respectively, activating gene transcription and promoting cellular growth.

[3] = tested on: ER positive MCF-7 breast cancer cells; experiment: Breast cancer cell proliferation (MTT assay), MCF-7
Method: Estrogen receptor (ER) positive MCF-7, and ER negative MDA-MB231 cells were plated in 5 mM fructose or glucose for times between 8-72 h, and proliferative rates measured using MTT assay. *, p<0.05; **, p<0.01.
FIG. 5 depicts fructose-mediated increased breast cancer proliferation in accordance with an embodiment of the present invention. ER positive MCF-7, and ER negative MDA-MB231 cells were plated in a range of fructose or glucose concentrations (5-25 mM) for 72 h, after which proliferative rates were measured using an MTT assay. *, p<0.05 for concentrations between 5-25 mM fructose versus glucose.
Standard media for breast cancer cell culture contain either 5-7 mM (low) and 12-25 mM (high) glucose concentrations. Estrogen receptor (ER) positive MCF-7, and ER negative MDA-MB231 cells were cultured overnight in 2 mM glucose standard DMEM medium containing 10% fetal bovine serum prior to incubation for periods between 8, and 72 hours in standard DMEM medium containing 10% fetal bovine serum, and 5 mM glucose or 5 mM fructose.
Proliferative rates were then measured in replicate (minimum of 6) aliquot wells of the breast cancer cells grown in glucose, or fructose containing medium. […] In separate experiments, proliferative rates of the MCF-7, and MDA-MB231 breast cancer cells were compared following culture in a range of fructose, and glucose concentrations (2-25 mM) for 72 hours.

SMILES: O=C(CO)[C@@H](O)[C@H](O)[C@H](O)CO [fructose]
- increase in AP-1 activation compared to 2 mM glucose [1]: 2.1 fold
- phospho-MEK expression ([2]; 5.5 mM fructose vs 5.5 and 2 mM glucose, MCF-7 and MDA-MB231): increased expression of phospho-MEK (pMEK)
- phospho-Rsk and phospho-CREB ([2]; 5.5 mM fructose, 24 h, vs 5.5 and 2 mM glucose): increased phospho-Rsk (pRsk), and phospho-CREB (pCREB)
- proliferative rates in fructose compared to glucose ([3]; MCF-7, 5 mM fructose vs 5 mM glucose, 8-72 h): higher proliferative rates
- proliferative rates in 5 mM fructose compared to 25 mM glucose ([3]; MCF-7, 72 hours, 5 mM fructose vs 5-fold higher glucose (25 mM)): higher proliferative rates
